Data published in patent US20250188078A1, “SMALL MOLECULE INHIBITORS OF THE CRL4 UBIQUITIN LIGASE” (Cornell University, priority 2022, published 2025).
Where “and” joins values, the source holds several entries; their conditions need not be identical. Equal values may be shown once.

Experiments:
[1] = test system: CUL1-dependent IκB-α degradation in Hela cells; assay: TNFα-induced CUL1/SCF-dependent IκBα degradation assay (Western blot); format: cell-based; details: FIG. 6D
Method: FIG. 6D Western blotting of TNFα-induced […] IκBα degradation assay. Hela cells were seeded in 6-well plates. After 24 hours incubation, DMSO or indicated concentration of compounds were added with serum-free medium for 2 hours incubation. TNFα was added and cells were harvested, lysed in buffer containing 150 mM NaCl, 1% SDS, 10 mM Tris-HCl (pH 6.8), 1× complete protease inhibitor cocktail and 10 U Benzo nuclease. Equal amounts of proteins were resolved on 9% SDS-PAGE gel and IκBα levels were detected using anti-IκBα rabbit polyclonal antibody (Proteintech, 10268-1-AP). α-tubulin (Proteintech, #66031-1-Ig) was used as an internal loading control. TNFα-induced IκBα degradation was mediated by CUL1/SCF^βTrCP E3 ligase.

[2] = Dynamic light scattering (DLS) solubility assay; format: physicochemical; details: normalized intensity ratio of 25 μM compound vs DMSO, in PBS
Outline: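 Compounds diluted from DMSO into PBS at final concentrations of 200 μM to 0.78 μM, in triplicate, and aggregation measured by light scattering intensity. A ratio above 2 scores insoluble (−), below 2 soluble (+), and around 2 (+/−).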

DDB1-BPB [3] = target: T1, DDB1-BPB (Homo sapiens (Human), UniProt Q16531); assay: Microscale Thermophoresis (MST) binding to DDB1-BPB; details: labeled DDB1-BPB, 25° C.
Method: Kd represents dissociation constant, which measures the affinity of small molecule binding to the scaffold DDB1-BPB by Microscale Thermophoresis (MST) (see Table 1, column 9). MST experiments were performed on a Monolith NT 115 system (Nano Temper Technologies, Munich, Germany) using 100% LED and 60% IR-laser power (https://physiology.case.edu/media/eq manuals/eq_manual_nano-temper_mst_starting_guide.pdf, hereby incorporated by reference in its entirety for all purposes). The labeling of DDB1-BPB ([…]) was performed in labeling buffer with NHS-Red reactive dye (30 μM) (Nanotemper), which reacts efficiently with the primary amines of the proteins to form a stable dye protein conjugates. The labeling reaction was carried out at RT. A 16-point serial dilution (1:1) was prepared for compound at the final concentration ranged from 200 µM to 3 nM in PBS containing 0.05% tween. The samples were filled into Premium capillaries and measurements were conducted at 25° C. An equation implemented by the software MO-S002 MO Affinity Analysis, provided by the manufacturer, was used for fitting normalized fluorescence values at different concentrations of ligands.

[4] = test system: CUL4A^high MDA-MB-468 and CUL4^low (T47D) cells; assay: Selective killing of CUL4A^high tumors (MDA-MB-468 vs T47D, Cell Titer Glo); format: cell-based; details: FIG. 10, 8 days treatment
Method: CUL4A^high MDA-MB-468 breast cancer cells and CUL4^low (T47D) cells were seeded in 96 well plates. After 24 hours, cells were treated with DMSO or compound PA99. After 8 days treatment, cell viability was examined by using CellTiter Glo kit (Promega #7570) following the manufacturer's guidelines. EC50 concentration was calculated by Prism 8 XY analysis nonlinear regression (curve fit-Log(inhibitor) vs response). Lower EC50 indicates high cell killing potential in CUL4^high MDA-MB-468 cells.

[5] = Pharmacokinetic study: compound concentration in MDA-MB-468 xenograft tumor tissue; format: in vivo, mouse; details: for Tissue concentration: individual tumors
Method: Female athymic Nu/J nude mice, 6 weeks old were purchased from the Jackson Laboratory. Mice were housed in laminar air-flow cabinet under specific pathogen-free conditions. 5×10^6 MDA-MB-468 cells in 100 μl diluted BD Matrigel™ Basement Membrane Matrix (BD Bioscience, Matrix:PBS is 1:1) were injected subcutaneously in each flank of mouse. We detected tumors once every four days by fine calipers measurement. When tumor size reached 100 mm^3, mice were randomly grouped and treated with DMSO or 50 mg/kg PA99 compound. The stock solution of compound was 10 mg/ml, which formulated with 10% DMSO, 10% Tween-80 and 80% H2O. PA99 was injected into mouse by intraperitoneal injection ([…]) three times per week. Mouse weights and tumor volumes were measured twice/week. For the pharmacokinetic study, samples were collected after compound injection (30 mins, 1 h, 3 h, 6 h). Four tumor samples were collected at each time point for mass spectrometry analysis to determine the compound concentrations in tumor tissues.

DDB1-BPB [6] = target: T1, DDB1-BPB; assay: Surface Plasmon Resonance (SPR) binding to DDB1-BPB; details: DDB1-BPB immobilized
Excerpt: Kd represents dissociation constant, which measures the affinity of small molecule binding to the scaffold DDB1-BPB by Surface Plasmon Resonance (SPR) (https://www.bio-rad.com/webroot/web/pdf/lsr/literature/Bulletin_6414.pdf, hereby incorporated by reference in its entirety) (see Table 1, column 8). To assess the interaction between DDB1-BPB and compounds, a multi-parametric SPR instrument (BioRad ProteON XPR360) was used. DDB1-BPB was immobilized onto the GLH sensor surface in a variety of ways as follows: flow channels were activated in parallel with 1/20 diluted EDC/SNHS. DDB1-BPB was diluted to 0.1 mg/mL in sodium acetate pH 4.5 and directly coupled onto channel for 4 min. Excess reactive esters were blocked with a 5-min injection of 1 M ethanolamine. Mean immobilization levels were 17,000 RU with <2% variation along a strip. One channel was left unmodified to provide an additional reference surface. Next, the binding kinetics of compounds on surfaces was determined in a single injection using a “one-shot” kinetic mode. Typically, compound was prepared as a twofold serial dilution (0, 3.125, 6.25, 12.5, 25, 50 μM) and injected for 60 s at […]. Dissociation was monitored for 800 s. Surfaces were regenerated with multiple 30-s pulses of 60 mM phosphoric acid so that the experiment could be reproduced. All resulting sensor grams were collected and analyzed using the ProteOn manager software.

T1 sequence (Q16531 403-706): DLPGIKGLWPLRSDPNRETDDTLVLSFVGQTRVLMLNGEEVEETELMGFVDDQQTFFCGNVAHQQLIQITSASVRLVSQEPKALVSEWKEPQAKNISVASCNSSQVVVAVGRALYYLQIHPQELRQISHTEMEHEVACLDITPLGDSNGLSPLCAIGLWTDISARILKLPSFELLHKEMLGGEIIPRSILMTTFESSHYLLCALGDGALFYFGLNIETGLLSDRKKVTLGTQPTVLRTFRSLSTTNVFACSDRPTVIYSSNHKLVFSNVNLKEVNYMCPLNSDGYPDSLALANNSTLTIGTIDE

SMILES	Inhibition of TNF-α induced CUL1-dependent IκB-α degradation [1]	Solubility (DLS Assay) [2]	Kd (MST) (DDB1-BPB [3])	Killing of CUL4A^high tumors [4]	Kd (DDB1-BPB [3])	Tissue concentration ([5]; 30 min after 50 mg/kg intraperitoneal injection)	Tissue concentration ([5]; 1 hr after 50 mg/kg intraperitoneal injection)	Tissue concentration ([5]; 3 hr after 50 mg/kg intraperitoneal injection)	Tissue concentration ([5]; 6 hr after 50 mg/kg intraperitoneal injection)	concentration at 30 min ([5]; female, athymic Nu/J nude, mouse, MDA-MB-468 xenograft tumor, intraperitoneal, 50 mg/kg, 30 min, average of four tumors)	concentration at 1 h ([5]; female, athymic Nu/J nude, mouse, MDA-MB-468 xenograft tumor, intraperitoneal, 50 mg/kg, 1 hr, average of four tumors)	concentration at 3 h ([5]; female, athymic Nu/J nude, mouse, MDA-MB-468 xenograft tumor, intraperitoneal, 50 mg/kg, 3 hr, average of four tumors)	concentration at 6 h ([5]; female, athymic Nu/J nude, mouse, MDA-MB-468 xenograft tumor, intraperitoneal, 50 mg/kg, 6 hr, average of four tumors)	Kd (DDB1-BPB [6])
CN(c1ccc(-c2nc(C(=O)O)cc3c2[nH]c2ccc(F)cc23)cc1)S(=O)(=O)c1ccccc1 [PA93]	no inhibition	-(insoluble)	Insoluble	–	–	–	–	–	–	–	–	–	–	–
CN(c1ccc(-c2nc(C(=O)O)cc3c2[nH]c2cccc(F)c23)cc1)S(=O)(=O)c1ccccc1 [PA99, 5-fluoro-1-(4-(N-methylphenylsulfonamido)phenyl)-9H-pyrido[3,4-b]indole-3-carboxylic acid]	no inhibition	–	–	selective killing	2.97 µM	3910 ng/mL and 8.2 μM and 666 ng/mL and 1.4 μM (2×) and 670 ng/mL and 1010 ng/mL and 2.1 μM	5780 ng/mL and 12.2 μM and 1790 ng/mL and 3.8 μM and 1230 ng/mL and 2.6 μM and 870 ng/mL and 1.8 μM	1400 ng/mL and 2.9 μM and 1340 ng/mL and 2.8 μM and 392 ng/mL and 0.8 μM and 290 ng/mL and 0.6 μM	419 ng/mL and 0.88 μM and 342 ng/mL and 0.72 μM and 1440 ng/mL and 3.0 μM and 913 ng/mL and 1.9 μM	1560 ng/mL and 3.3 µM	2420 ng/mL and 5.1 µM	856 ng/mL and 1.8 µM	779 ng/mL and 1.6 µM	2.13 µM
